Results on 21 compounds are retold here after patent US10308652B2, “Tricyclic heterocyclic compounds useful as inhibitors of TNF” (BRISTOL-MYERS SQUIBB COMPANY, priority 2015, dated 2019).

Chain of TNFα (P01375 77-233): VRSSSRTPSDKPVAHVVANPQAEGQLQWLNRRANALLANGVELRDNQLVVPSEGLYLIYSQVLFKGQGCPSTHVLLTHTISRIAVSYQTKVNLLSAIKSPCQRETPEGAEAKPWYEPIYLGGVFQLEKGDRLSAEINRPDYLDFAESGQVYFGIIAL

The experiment addresses TNFα (Homo sapiens (Human), UniProt P01375). The experiment in a line: TNF induced HEK-Blue assay. It is filed as cell-based. Conditions: TNFα 0.5 ng/ml; HEK-Blue-CD40L cells, NF-κB-driven secreted alkaline phosphatase reporter; 18 h. The protocol: TNF or CD40L-induced HEK-Blue Assay Test compounds serially diluted in DMSO were plated in an assay plate (Labcyte, Cat. #LP-0200) at final concentrations ranging from 0.004 μM to 25μM. TNFα (final concentration 0.5 ng/ml) or CD4OL (final concentration 30 ng/ml) in assay buffer [DMEM, 4.5 g/l glucose (Gibco, Cat. 21063-029), 10% FBS (Sigma, F4135), 1% Penicillin-Streptomycin (Gibco, Cat. 15140-122), 1% Anti-Anti (Gibco, Cat. 15240-112) and 2 mM L-glutamine (Gibco, Cat. 25030-081)] was then added to the assay plate. After a 30 minute pre-incubation at 37° C. and 5% CO2, HEK-Blue-CD40L cells (InvivoGen, Cat. Code hkb-cd40) containing a NF-κB-driven secreted alkaline phosphatase reporter gene were seeded into the assay plate at a density of 20,000 cells per well. This plate was then incubated for 18 h at 37° C. and 5% CO2. Secreted alkaline phosphatase expression was measured using QUANTI-Blue (InvivoGen, Cat. Code rep-qb1) according to manufacturer's specifications and the assay plate was read on a PerkinElmer Envision at 620 nm. Inhibition data for the test compound over a range of concentrations was plotted as percentage inhibition of the test compound (100%=maximum inhibition). IC50 values were determined after correcting for background [(sample read−mean of low control)/(mean of high control−mean of low control)] where by the low control is DMSO without stimulation and high control is DMSO with stimulation. The IC50 is defined as the concentration of test compound which produces 50% inhibition and was quantified using the 4 parameter logistic equation to fit the data.
For the compound “(+/−)-trans-9-(2,5-dimethylphenyl)-2-(4-(2-hydroxypropan-2-yl)phenyl)-6,7,8,9-tetrahydropyrido[4′,3′:4,5]imidazo[1,2-b]pyridazin-6-ol [Example 53]”, the IC50 (as a rule, the point on the concentration scale where inhibition reaches its midpoint) lay in the range of 1 to 10 µM. `CCCOc1ccc(-c2ccc3nc4c(n3n2)[C@@H](c2ccccc2OC(F)F)NC[C@H]4O)cc1` (racemic) [Example 33, (+/−)-cis-9-(2-(difluoromethoxy)phenyl)-2-(4-propoxyphenyl)-6,7,8,9-tetrahydropyrido [4′,3′:4,5]imidazo[1,2-b]pyridazin-6-ol] gave a 50% inhibitory concentration (IC50) of under 1 µM. The same measure for `CCOc1ccc(-c2ccc3nc4c(n3n2)[C@@H](c2ccccc2OC(F)F)NC[C@H]4O)cc1` (racemic) [Example 31, (+/−)-cis-9-(2-(difluoromethoxy)phenyl)-2-(4-ethoxyphenyl)-6,7,8,9-tetrahydropyrido[4′,3′:4,5]imidazo [1,2-b]pyridazin-6-ol]: 1 to 10 µM; for `CC(C)(O)c1ncc(-c2ccc3nc4c(n3n2)[C@@H](c2ccccc2OC(F)F)NC[C@H]4F)cn1` (racemic) [Example 10, (+/−)-cis-2-(5-(9-(2-(difluoromethoxy)phenyl)-6-fluoro-6,7,8,9-tetrahydropyrido [4′,3′:4,5]imidazo[1,2-b]pyridazin-2-yl)pyrimidin-2-yl)propan-2-ol]: 1 to 10 µM. The compound `COc1ccccc1COc1ccc(-c2ccc3nc4c(n3n2)[C@@H](c2ccccc2OC(F)F)NC[C@H]4O)cc1` (racemic) [Example 37, (+/−)-cis-9-(2-(difluoromethoxy)phenyl)-2-(4-((2-methoxybenzyl)oxy)phenyl)-6,7,8,9-tetrahydropyrido[4′,3′:4,5]imidazo[1,2-b]pyridazin-6-ol] came in with a concentration for half-maximal inhibition (IC50) of 1 to 10 µM. In the case of “(+/−)-cis-9-(4-fluoro-2-methylphenyl)-2-(4-(2-hydroxypropan-2-yl)phenyl)-6,7,8,9-tetrahydropyrido [4′,3′:4,5]imidazo[1,2-b]pyridazin-6-ol [Example 43]”, the concentration for half-maximal inhibition (IC50) lay in the range of 1 to 10 µM. `CC(C)(O)COc1ccc(-c2ccc3nc4c(n3n2)[C@@H](c2ccccc2OC(F)F)NC[C@H]4O)cc1` (racemic) [Example 29, (+/−)-cis-9-(2-(difluoromethoxy)phenyl)-2-(4-(2-hydroxy-2-methylpropoxy)phenyl)-6,7,8,9-tetrahydropyrido[4′,3′:4,5]imidazo[1,2-b]pyridazin-6-ol] registered a 50% inhibitory concentration (IC50) of 1 to 10 µM. In turn, `CCc1ccccc1[C@H]1NC[C@@H](O)c2nc3ccc(-c4ccc(C(C)(C)O)cc4)nn3c21` (racemic) [Example 25, (+/−)-cis-9-(2-ethylphenyl)-2-(4-(2-hydroxypropan-2-yl)phenyl)-6,7,8,9-tetrahydropyrido[4′,3′:4,5]imidazo[1,2-b]pyridazin-6-ol] displayed an IC50 of 1 to 10 µM. With `COc1cc(F)ccc1[C@@H]1NC[C@@H](O)c2nc3ccc(-c4ccc(C(C)(C)O)cc4)nn3c21` (racemic) [Example 23, (+/−)-trans-9-(4-fluoro-2-methoxyphenyl)-2-(4-(2-hydroxypropan-2-yl)phenyl)-6,7,8,9-tetrahydropyrido[4′,3′:4,5]imidazo[1,2-b]pyridazin-6-ol], the 50% inhibitory concentration (IC50) was 1 to 10 µM. `CCOC(C)c1ccc(-c2ccc3nc4c(n3n2)C(c2ccccc2OC(F)F)NCC4O)cc1` (racemic) [Example 35, (+/−)-cis-9-(2-(difluoromethoxy)phenyl)-2-(4-(1-ethoxyethyl)phenyl)-6,7,8,9-tetrahydropyrido[4′,3′:4,5]imidazo[1,2-b]pyridazin-6-ol] came in with a 50% inhibitory concentration (IC50) of 1 to 10 µM. In turn, `CC(C)(O)c1ccc(-c2ccc3nc4c(n3n2)[C@H](c2cc(Cl)ccc2C(F)(F)F)NC[C@H]4O)cc1` (racemic) [Example 55, (+/−)-trans-9-(5-chloro-2-(trifluoromethyl)phenyl)-2-(4-(2-hydroxypropan-2-yl)phenyl)-6,7,8,9-tetrahydropyrido [4′,3′:4,5]imidazo[1,2-b]pyridazin-6-ol] registered a half-inhibitory concentration (IC50) of 1 to 10 µM. `COc1ccc(-c2ccc3nc4c(n3n2)C(c2ccccc2OC(F)F)NCC4O)cn1` [Example 16, cis-(6R,9S)-9-(2-(difluoromethoxy)phenyl)-2-(6-methoxypyridin-3-yl)-6,7,8,9-tetrahydropyrido[4′,3′:4,5]imidazo[1,2-b]pyridazin-6-ol] had an IC50 of 1 to 10 µM. In turn, “(+/−)-cis-9-(2-(difluoromethoxy)phenyl)-2-(4-(2-hydroxybutan-2-yl)phenyl)-6,7,8,9-tetrahydropyrido[4′,3′:4,5]imidazo[1,2-b]pyridazin-6-ol [Example 50]” registered an IC50 of 1 to 10 µM. Then `CC(C)(O)c1ccc(-c2ccc3nc4c(n3n2)C(c2ccccc2OC(F)F)NCC4)cc1` (racemic) [Example 2, (+/−)-2-(4-(9-(2-(Difluoromethoxy)phenyl)-6,7,8,9-tetrahydropyrido [4′,3′:4,5]imidazo[1,2-b]pyridazin-2-yl)phenyl)propan-2-ol], with under 1 µM; and `CC(C)(O)c1ccc(-c2ccc3nc4c(n3n2)C(c2ccccc2OC(F)(F)F)NCC4O)cc1` (stereo not drawn) [Example 26, 2-(4-(2-hydroxypropan-2-yl)phenyl)-9-(2-(trifluoromethoxy)phenyl)-6,7,8,9-tetrahydropyrido [4′,3′:4,5]imidazo[1,2-b]pyridazin-6-ol], with under 1 µM.

For `NS(=O)(=O)c1ccc(-c2ccc3nc4c(n3n2)[C@@H](c2ccccc2OC(F)F)NC[C@H]4O)cc1` (racemic) [Example 46, (+/−)-cis-4-(9-(2-(difluoromethoxy)phenyl)-6-hydroxy-6,7,8,9-tetrahydropyrido[4′,3′:4,5]imidazo[1,2-b]pyridazin-2-yl)benzenesulfonamide], the IC50 lay in the range of 1 to 10 µM.

“(+/−)-cis-9-(2-(difluoromethoxy)phenyl)-2-(4-(3-hydroxypentan-3-yl)phenyl)-6,7,8,9-tetrahydropyrido[4′,3′:4,5]imidazo[1,2-b]pyridazin-6-ol [Example 49]” registered an IC50 of 1 to 10 µM.

Turning to `COc1ccc(-c2ccc3nc4c(n3n2)[C@@H](c2ccccc2OC(F)F)NC[C@H]4F)cn1` (racemic) [Example 11, (+/−)-cis-9-(2-(difluoromethoxy)phenyl)-6-fluoro-2-(6-methoxypyridin-3-yl)-6,7,8,9-tetrahydropyrido [4′,3′:4,5]imidazo[1,2-b]pyridazine], the half-inhibitory concentration (IC50) fell in the range of 10 to 25 µM.

Compound `COC1CN(C(=O)c2ccc(-c3ccc4nc5c(n4n3)C(c3ccccc3OC(F)F)NCC5O)cc2)C1` (stereo not drawn) [Example 18, (4-(9-(2-(difluoromethoxy)phenyl)-6-hydroxy-6,7,8,9-tetrahydropyrido[4′,3′:4,5]imidazo[1,2-b]pyridazin-2-yl)phenyl)(3-methoxyazetidin-1-yl)methanone] had an IC50 of 10 to 25 µM. In turn, “(+/−)-trans-9-(4-fluoro-2-methylphenyl)-2-(4-(2-hydroxypropan-2-yl)phenyl)-6,7,8,9-tetrahydropyrido[4′,3′:4,5]imidazo[1,2-b]pyridazin-6-ol [Example 44]” gave an IC50 of under 1 µM. The same measure for `CC(C)(O)c1ccc(-c2ccc3nc4c(n3n2)[C@H](c2ccccc2OC(F)F)NC[C@H]4O)cc1` [Example 14, trans-(6R,9S)-9-(2-(difluoromethoxy)phenyl)-2-(4-(2-hydroxypropan-2-yl)phenyl)-6,7,8,9-tetrahydropyrido[4′,3′:4,5]imidazo[1,2-b]pyridazin-6-ol]: 1 to 10 µM.
